# Earlier results, collected in US8821913B2, “Controlled releases system containing temozolomide” (Tasly Holding Group Co., Ltd., priority 2002, dated 2014).
# Where two headings read alike, the source gives them in different places.
# Experiments:
# [1] = mouse
# [2] = phase I clinical trial
compound,measurement,setting,value
"Cn1nnc2c(C(N)=O)ncn2c1=O [TMZ, Temozolomide]",half-life time,[1]; i.p.,1.13 h
same,half-life time,[1]; p.o.,1.29 h
same,half-life time,[2],1.8 h
same,time to reach maximum plasma concentration,[2],≤ 0.7 h
